Assay results from patent publication US6734190B2, “Dihydrodipyrazolopyridinylbenzamide and -sulfonamide inhibitors of B7-1” (Wyeth, priority 2002, dated 2004).

Experiments:
[1] = molecular target: T1, B7-1/CD28 (Homo sapiens, UniProt P33681); assay: CD28/B7-1 ELISA (B7-1/CD28 binding inhibition); conditions: CD28-Fc coated wells; B7-1-Fc-biotin/streptavidin-alkaline phosphatase detection complex; 1% DMSO
T1 sequence (P33681 35-242 limits assumed): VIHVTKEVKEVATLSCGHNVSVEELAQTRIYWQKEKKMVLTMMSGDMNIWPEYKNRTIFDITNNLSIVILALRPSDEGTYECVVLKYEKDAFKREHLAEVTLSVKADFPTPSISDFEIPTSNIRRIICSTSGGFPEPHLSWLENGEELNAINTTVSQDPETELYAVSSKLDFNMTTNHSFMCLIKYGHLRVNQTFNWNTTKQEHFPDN
Method: Evaluation of B7-1/CD28 Binding Inhibition for Test Compounds
Wells are coated with 300 ng CD28-Fc in carbonate buffer (pH 9.4) overnight at 4° C., blocked with 1% bovine serum albumin in tris-buffered saline (TBS) for 1 h at 22° C. and washed 3 times in TBS prior to assay. The detection complex is formed as follows: B7-1-Fc-biotin, prepared using NHS-LC-biotin (Pierce #21335) according to the manufacturers instructions (4.1 moles biotinimole Fc), is added at 0.8 ug/ml to streptavidin-alkaline phosphatase (Caltag Sa1008) at 1:1000 in TBS. A solution of test compound in dimethylsulfoxide (1% final) are added to this complex and incubated 30 min at 22° C. Detection complex (+/−inhibitors) is then added to the CD28 coated wells for 25 min at 22° C., washed 5 times with TBS, developed with the colorimetric substrate pNPP (Pierce #34045) in diethanolamine/MgCl2 buffer (pH 9.5) and read at 405 nm. The inhibition constant (IC50) is calculated by subtracting background binding and comparing to uninhibited (DMSO alone) controls. The inhibition constant represents the concentration of test compound required to achieve 50% inhibition.

Row | Compound | melting point | IC50 [1]
1 | COCc1cccc(NC(=O)c2ccc(-n3[nH]c4c(c(-c5cccc(C(F)(F)F)c5)nc5c4cnn5C)c3=O)cc2)c1 [Example 29] | 210 °C (dec.) | 110 nM
2 | Cn1ncc2c3[nH]n(-c4ccc(C(=O)N5CCOCC5)c(F)c4)c(=O)c3c(-c3cccc(C(F)(F)F)c3)nc21 [Example 30] | 176 to 179 °C | 310 nM
3 | Cn1ncc2c3[nH]n(-c4ccc(C(=O)N5CCOCC5)cc4)c(=O)c3c(-c3cccc(C(F)(F)F)c3)nc21 [Example 33, 6-methyl-2-[4-(4-morpholinylcarbonyl)phenyl]-4-[3-(trifluoromethyl)phenyl]-1,6-dihydrodipyrazolo[3,4-b:3,4-d]pyridin-3(2H)-one] | 287 to 290 °C | 13 nM
4 | CC(=O)c1cccc(NC(=O)c2ccc(-n3[nH]c4c(c(-c5cccc(C(F)(F)F)c5)nc5c4cnn5C)c3=O)cc2)c1 [Example 38] | 300 °C (dec.) | 44 nM
5 | COC(=O)c1cccc(NC(=O)c2ccc(-n3[nH]c4c(c(-c5cccc(C(F)(F)F)c5)nc5c4cnn5C)c3=O)cc2)c1 [Example 42] | 220 to 222 °C | 94 nM
6 | Cn1ncc2c3[nH]n(-c4ccc(C(=O)Nc5cccc6c5CCCC6O)cc4)c(=O)c3c(-c3cccc(C(F)(F)F)c3)nc21 (centres unmarked) [Example 43] | 298 °C (dec.) | 300 nM
7 | Cn1ncc2c3[nH]n(-c4cccc(C(=O)N5CCC[C@H]5C(=O)O)c4)c(=O)c3c(-c3cccc(C(F)(F)F)c3)nc21 [Example 69] | 168 to 171 °C | 100 nM

Continued, values first:

Row | melting point | IC50 [1] | Compound
8 | 189 to 192 °C | 79 nM | Cn1ncc2c3[nH]n(-c4ccc(C(=O)NCc5ccccc5)cc4)c(=O)c3c(-c3cccc(C(F)(F)F)c3)nc21 [Example 32]
9 | 186 to 189 °C | 23 nM | Cn1ncc2c3[nH]n(-c4ccc(C(=O)Nc5ccc(CCO)cc5)cc4)c(=O)c3c(-c3cccc(C(F)(F)F)c3)nc21 [Example 34]
10 | 189.8 to 192.7 °C | 180 nM | Cn1ncc2c3[nH]n(-c4ccc(C(=O)N5CCCC(CO)C5)cc4)c(=O)c3c(-c3cccc(C(F)(F)F)c3)nc21 (centres unmarked) [Example 36]
11 | 280 °C (dec.) | 88 nM | Cn1ncc2c3[nH]n(-c4ccc(C(=O)NCCCCO)cc4)c(=O)c3c(-c3cccc(C(F)(F)F)c3)nc21 [Example 37]
12 | 234.5 to 236 °C | 140 nM | Cn1ncc2c3[nH]n(-c4ccc(C(=O)NCCCCCN)cc4)c(=O)c3c(-c3cccc(C(F)(F)F)c3)nc21 [Example 39]
13 | 206 to 209 °C | 36 nM | Cn1ncc2c3[nH]n(-c4ccc(C(=O)Nc5ccc(O)c(O)c5)cc4)c(=O)c3c(-c3cccc(C(F)(F)F)c3)nc21 [Example 98]
